This note sets out measurements from ChEMBL document CHEMBL5604063, “ASAP - DENV-2 NS2B-NS3 protease fluorescence dose response” (2024).

For the assay, the target named is Genome polyprotein (dengue virus type 2, UniProt P29990). Format: functional, Thailand/16681/1984.

“And” between values parts separate entries of the source, which are not always exact repeats. Equal values may be shown once.

Sequence of Genome polyprotein (P29990 1346-1475 limits assumed): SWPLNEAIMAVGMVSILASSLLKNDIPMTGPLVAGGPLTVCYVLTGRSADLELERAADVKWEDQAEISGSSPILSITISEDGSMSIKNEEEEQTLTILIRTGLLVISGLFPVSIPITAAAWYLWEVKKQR
Sequence of Genome polyprotein (P29990 1476-2093 limits assumed): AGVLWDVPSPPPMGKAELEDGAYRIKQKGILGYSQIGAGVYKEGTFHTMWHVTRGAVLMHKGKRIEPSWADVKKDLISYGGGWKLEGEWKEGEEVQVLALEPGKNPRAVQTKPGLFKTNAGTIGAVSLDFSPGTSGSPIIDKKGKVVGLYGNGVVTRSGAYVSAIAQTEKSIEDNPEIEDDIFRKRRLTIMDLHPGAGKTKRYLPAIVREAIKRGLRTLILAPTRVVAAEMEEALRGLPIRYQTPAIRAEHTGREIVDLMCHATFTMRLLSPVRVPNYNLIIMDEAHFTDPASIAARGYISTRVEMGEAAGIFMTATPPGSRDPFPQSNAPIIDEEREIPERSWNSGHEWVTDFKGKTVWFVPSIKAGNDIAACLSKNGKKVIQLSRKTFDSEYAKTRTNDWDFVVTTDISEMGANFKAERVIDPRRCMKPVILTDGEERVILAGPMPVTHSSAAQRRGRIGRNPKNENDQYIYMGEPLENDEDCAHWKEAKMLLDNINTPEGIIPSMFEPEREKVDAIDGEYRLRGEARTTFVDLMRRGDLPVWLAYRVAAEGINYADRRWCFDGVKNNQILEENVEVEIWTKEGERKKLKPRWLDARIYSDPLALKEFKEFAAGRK

What is called IC50 is the midpoint of a concentration-inhibition curve. Low values mean greater potency in that assay, high ones weaker potency in that assay. The compound `O=C(NCc1cnn(CCO)c1)c1cccc2c1NC(=O)[C@]1(CCCN1)C2` returned an IC50 greater than 99.5 µM.

In turn, `CC[C@@H](NCc1c[nH]c2ccccc12)c1cccnc1` gave an IC50 greater than 99.5 µM.

`O=C(O)c1cc(Cl)ccc1S(=O)(=O)Nc1ccc(N2CCCS2(=O)=O)cc1`: the half-inhibitory concentration (IC50) is greater than 99.5 µM.

Turning to `Cc1cccc([C@@H](NC(=O)OCc2ccccc2)C(=O)Nc2cccc(CN)c2)n1`, the IC50 is greater than 99.5 µM.

As to `O=C(Nc1ccc(NS(=O)(=O)c2ccc(Cl)cc2C(=O)O)cc1)c1ccccc1`, the half-maximal inhibitory concentration (IC50) was greater than 99.5 µM.

Consider `c1ccc2sc(C3CCN(CCc4c[nH]c5ccccc45)CC3)nc2c1`, for which the half-inhibitory concentration (IC50) was greater than 99.5 µM.

Compound `CSCc1nnc(SCc2ccncc2)o1` returned an IC50 greater than 99.5 µM.

For `CC(C)Nc1nc2ccc(C(=O)Nc3nnnn3-c3ccccn3)cc2[nH]1`, the IC50 is greater than 99.5 µM.

For the compound `O=Cc1ccc(N2CCC(C(=O)N3CCC(CCN4CCCC4)CC3)CC2)cc1`, the 50% inhibitory concentration (IC50) was greater than 99.9 µM.

The compound `CCn1c(=O)c(N2CCC[C@H]2c2noc(C)n2)nc2ccccc21` yielded a half-maximal inhibitory concentration (IC50) greater than 99.5 µM.

`O=C(Nc1ccc2c(c1)CNC2)c1cc(Cl)ccc1SC1CCCC1` gave an IC50 greater than 99.5 µM.

For the compound `O=C(N[C@@H](C(=O)NCc1cnccn1)c1ccc(OCc2ccccc2)cc1)OCc1ccccc1`, the IC50 is greater than 99.5 µM.

In the case of `CC(C)NC(=O)[C@H](Nc1ccc2c(c1)C(=O)OC2)c1cc(Cl)cc2[nH]ncc12`, the 50% inhibitory concentration (IC50) was greater than 99.5 µM.

Compound `COCc1ccccc1Nc1ccc(S(=O)(=O)Nc2ccc(Cl)cc2C(=O)O)cn1` had a half-maximal inhibitory concentration (IC50) greater than 99.5 µM.

On to `CC(C)(C)OC(=O)Cn1ccnc(N2CC[C@@H](CO)C2)c1=O`, for which the IC50 is greater than 99.5 µM.

On to `NCc1cccc(NC(=O)[C@@H](NC(=O)OCc2ccccc2)c2ccc(C(F)(F)F)cc2)c1`, for which the IC50 was determined as 64.3 µM.

In turn, `O=C(N[C@H](C(=O)NCc1cccc(CO)n1)c1ccc(OCc2ccccc2)cc1)OCc1ccccc1` had an IC50 greater than 99.5 µM.

In the case of `NCc1cccc(NC(=O)[C@@H](NC(=O)OCc2ccccc2)c2cccc(OCc3cncnc3)c2)c1`, the concentration for half-maximal inhibition (IC50) is greater than 99.5 µM.

As to `O=C(N[C@@H](C(=O)NCc1cccc(CN2CCCCC2)c1)c1ccc(OCc2ccccc2)cc1)OCc1ccccc1`, the IC50 was greater than 99.5 µM.

Compound `COc1ccc(COc2ccc(S(=O)(=O)Nc3ccc(Cl)cc3C(=O)O)cc2)nc1` came in with an IC50 of 74.1 µM.

In turn, `CCC1([C@H](NC(=O)OCc2ccccc2)C(=O)NCc2cccc(CN)c2)CCCCC1` displayed an IC50 greater than 99.5 µM.

As to `Cc1cc(C)c([C@@H](NC(=O)OCc2ccccc2)C(=O)Nc2cccc(CN)c2)c(C)c1`, the IC50 is greater than 99.5 µM.

For the compound `N=C(N)NCCc1cccc(B(O)O)c1`, the 50% inhibitory concentration (IC50) is greater than 99.5 µM.

Turning to `NCc1cccc(NC(=O)[C@@H](NC(=O)OCc2ccccc2)c2ccc(-c3ccc4cn[nH]c4c3)cc2)c1`, the half-inhibitory concentration (IC50) is 6.06 µM and 6 µM and 5.75 µM.

Compound `CS(=O)(=O)c1ccc(-c2cccc([C@H](NC(=O)OCc3ccccc3)C(=O)Nc3cccc(CN)c3)c2)cn1` registered an IC50 greater than 99.5 µM.

For `O=C(O)c1cc(Cl)ccc1S(=O)(=O)Nc1ccc(S(=O)(=O)N2CCCCC2)cc1`, the IC50 is greater than 99.5 µM.

Compound `Cn1nccc1CN1CCC(NS(=O)(=O)c2ccc(Cl)cc2C(=O)O)CC1` had an IC50 greater than 99.5 µM.

In the case of `NC[C@@H]1CN(c2cc(N3CC[C@H](N)C3)cc3c2COB3O)C(=O)O1`, the IC50 is greater than 99.5 µM.

`CNC(=O)c1cc(Cl)c(F)cc1NS(=O)(=O)c1ccc(Oc2ccccc2Cl)cc1` had a half-maximal inhibitory concentration (IC50) of 14.9 µM.

In turn, `NCc1cccc(NC(=O)[C@H](NC(=O)OCc2ccccc2)C2CCNCC2)c1` registered a half-inhibitory concentration (IC50) greater than 99.5 µM.

In the case of `CN(C(=O)[C@@H](NC(=O)OCc1ccccc1)c1ccc(OCc2ccccc2)cc1)c1cccc(CN)c1`, the half-inhibitory concentration (IC50) is greater than 99.5 µM.

On to `CC(C)Oc1ccc(S(=O)(=O)Nc2ccc(Cl)cc2C(=O)O)cc1`, for which the concentration for half-maximal inhibition (IC50) is greater than 99.5 µM.

On to `c1ccc2c(CN3CCC(c4nn[nH]n4)CC3)c[nH]c2c1`, for which the IC50 was greater than 99.5 µM.

In turn, `Cc1c(C(=O)Nc2ccc3c(c2)CS(=O)(=O)C3)cc(C2CC2)n1C` displayed an IC50 greater than 99.5 µM.

`CCn1ccnc(N2CC[C@H](C3CCOCC3)C2)c1=O` displayed an IC50 greater than 99.5 µM.

Compound `C[C@]1(C(=O)N[C@H](C(=O)Nc2cccc(CN)c2)c2ccc(OCc3ccccc3)cc2)CCCO1` showed an IC50 greater than 99.5 µM.

On to `CN(C)Cc1ccc(N2CCN(Cc3c[nH]c4ccccc34)CC2)nc1`, for which the 50% inhibitory concentration (IC50) was greater than 99.5 µM.

`O=c1c2cccn2cnn1Cc1cnc(Cl)s1` showed a 50% inhibitory concentration (IC50) greater than 99.5 µM.

Turning to `CCn1c(=O)c(N2CCC[C@@H]2c2cncn2C)nc2ccccc21`, the IC50 is greater than 99.5 µM.

In the case of `O=C1c2c(O)ccc([N+](=O)[O-])c2C(=O)c2c([N+](=O)[O-])ccc(O)c21`, the IC50 was 12.7 µM and > 99.5 µM.

`N#Cc1ccc(OCCn2nnn(-c3ccccc3)c2=O)cc1` gave an IC50 greater than 99.5 µM.

With `CCn1ccnc(N2C[C@@H](O)[C@H](c3c[nH]c4ccccc34)C2)c1=O`, the IC50 is greater than 99.5 µM.

`Cn1cc(-c2ccc([C@@H](NC(=O)OCc3ccccc3)C(=O)Nc3cccc(CN)c3)cc2)cn1`: the IC50 is greater than 99.5 µM.

In turn, `CC(=O)Nc1cccc(CNC(=O)C2CCN(c3ccc(C=O)cc3)CC2)c1` yielded an IC50 of 98.1 µM.

On to `CCn1c(=O)c(N2CC[C@]3(CCNC3=O)C2)nc2ccccc21`, for which the IC50 was greater than 99.5 µM.

Regarding `CCn1ccnc(N2CC[C@H](c3cccc(C#N)c3)C2)c1=O`, the 50% inhibitory concentration (IC50) is greater than 99.5 µM.

`CCn1ccc(-c2ccc([C@@H](NC(=O)OCc3ccccc3)C(=O)Nc3cccc(CN)c3)cc2)n1` came in with an IC50 greater than 99.5 µM.

`CCn1nc(-c2ccccc2)cc1NS(=O)(=O)c1ccc(Cl)cc1C(=O)O` yielded a half-inhibitory concentration (IC50) greater than 99.5 µM.

As to `Cc1[nH]c2ccccc2c1CN1CCC(c2c[nH]c3ncccc23)CC1`, the IC50 was greater than 99.5 µM.

`O=C(O)c1cc(Cl)ccc1S(=O)(=O)NC1CCN(Cc2ccc(F)c(F)c2)CC1` came in with a half-inhibitory concentration (IC50) greater than 99.5 µM.

As to `O=C(O)c1cc(Oc2ccc(F)cc2)c(F)cc1NS(=O)(=O)c1ccc(Oc2ccccc2Cl)cc1`, inhibition was half-maximal at 3.76 µM (IC50).

`O=C(Nc1cc(Cl)cc(C(=O)Nc2cnc3n2CCNC3)c1)OCc1ccccc1` came in with an IC50 greater than 99.5 µM.

`NCc1cccc(NC(=O)[C@@H](NC(=O)OCc2ccccc2)c2cccc(OC[C@H]3CCCO3)c2)c1` showed a 50% inhibitory concentration (IC50) greater than 99.5 µM.

For the compound `CCn1c(=O)c(N2C[C@@H]3[C@H](C2)[C@H]2CC[C@@H]3O2)nc2ccccc21`, the half-inhibitory concentration (IC50) is greater than 99.5 µM.

The compound `O=C(NCCO)c1cc(Cl)ccc1NS(=O)(=O)c1ccc(Oc2ccccc2Cl)cc1` displayed a half-maximal inhibitory concentration (IC50) of 68 µM.

Compound `Cc1c(NC(=O)OCc2ccccc2)cc(C(F)(F)F)cc1C(=O)Nc1cccc(CN)c1` displayed an IC50 of 51.4 µM.

`c1cc(C2CCN(Cc3c[nH]c4ccccc34)CC2)c2ccncc2c1`: the concentration for half-maximal inhibition (IC50) was greater than 99.5 µM.

With `Cc1nocc1S(=O)(=O)N[C@H](C(=O)Nc1cccc(CN)c1)c1ccc(OCc2ccccc2)cc1`, the half-maximal inhibitory concentration (IC50) was greater than 99.5 µM.

Turning to `NC(=O)c1cc(Cl)ccc1NS(=O)(=O)c1ccc(-c2ccc(F)cc2)cc1`, half-maximal inhibition (IC50) was put at 33.3 µM.

For `COC(=O)[C@H](NC(=O)OC(C)(C)C)c1ccc(-c2csc(C)c2)cc1`, the IC50 is greater than 99.5 µM.

Turning to `CN1CCc2nc(NC(=O)[C@@H](NC(=O)OCc3ccccc3)c3ccc(OCc4ccccc4)cc3)sc2C1`, the half-inhibitory concentration (IC50) is greater than 99.5 µM.

In turn, `CCn1c(=O)c(N2CC[C@@]3(CCCN3C)C2)nc2ccccc21` displayed an IC50 greater than 99.5 µM.

As to `O=C(O)c1cc(Cl)ccc1S(=O)(=O)NC1CCN(CC2CCOCC2)CC1`, the IC50 was greater than 99.5 µM.

`CCn1c(=O)c(N2C[C@@H]3C[C@]3(CO)C2)nc2ccccc21` showed an IC50 greater than 99.5 µM.

In turn, `Clc1snnc1CN1CCC(c2nc3ccccc3o2)CC1` showed an IC50 greater than 99.5 µM.

The compound `Cn1cc(C(=O)O)c(NS(=O)(=O)c2ccc(Oc3ccccc3Cl)cc2)n1` came in with a 50% inhibitory concentration (IC50) greater than 99.5 µM.

The compound `COc1cc(C(=O)Nc2ccc3c(c2)CNC3)cc2ccoc12` registered an IC50 greater than 99.5 µM.

`COc1ccc2c(O)nn(S(=O)(=O)c3ccc(C(=O)O)cc3)c2c1`: the IC50 was greater than 99.5 µM.

Consider `CCn1ccnc(N2CCC[C@H]2C(=O)O)c1=O`, for which the half-maximal inhibitory concentration (IC50) was greater than 99.5 µM.

The compound `CC(C)N1CCc2nc(NC(=O)c3cc(Cl)cc(NC(=O)OCc4ccccc4)c3)sc2C1` gave an IC50 greater than 99.5 µM.

As to `N#C[C@H](Nc1ccc2c(c1)CNC2)c1cc(Cl)cc2c1OCC2`, the half-inhibitory concentration (IC50) was greater than 99.5 µM.

In turn, `CN1[C@@H]2CCC[C@H]1C[C@@H](NC(=O)C1CCN(c3ccc(C=O)cc3)CC1)C2` yielded an IC50 of 98.7 µM.

On to `NCc1ccc(-c2ncc(OCC3CCNCC3)nc2-c2ccc(C3CCOCC3)cc2)cc1`, for which the 50% inhibitory concentration (IC50) is greater than 99.5 µM.

In turn, `C[C@@H](N)c1cccc(NC(=O)[C@@H](NC(=O)OCc2ccccc2)c2ccc(OCc3ccccc3)cc2)c1` had an IC50 greater than 99.5 µM.

Regarding `NC[C@H]1CC[C@H](NC(=O)[C@@H](NC(=O)OCc2ccccc2)c2ccc(OCc3ccccc3)cc2)CC1`, the IC50 is greater than 99.5 µM.

In turn, `NCc1cccc(NC(=O)Cc2cc(Cl)cc(NC(=O)OCc3ccccc3)c2)c1` yielded an IC50 of 85.8 µM.

As for `CC(C)CNC(=O)c1cc(Cl)ccc1C=Cc1ccc(Oc2ccccc2Cl)cc1`, the IC50 is greater than 99.5 µM.

For the compound `CN1CCn2nc(NC(=O)[C@@H](NC(=O)OCc3ccccc3)c3ccc(OCc4ccccc4)cc3)cc2C1`, the IC50 was greater than 99.5 µM.

In turn, `CN(C(=O)c1ccc2c(c1)[C@H](CN)CCC2)C1CCN(CC(F)F)CC1` had a 50% inhibitory concentration (IC50) greater than 99.5 µM.

Turning to `c1nc(C2CCN(Cc3n[nH]c4c3CCC4)CC2)cs1`, the half-maximal inhibitory concentration (IC50) is greater than 99.5 µM.

Compound `N=C(N)NCc1ccc(OC(=O)Nc2ccccc2)cc1` displayed an IC50 greater than 99.5 µM.

Compound `NCc1cccc(NC(=O)[C@@H](NC(=O)OCc2ccccc2)c2cccc(-c3cncnc3)c2)c1` registered a half-maximal inhibitory concentration (IC50) greater than 99.5 µM.

`O=c1[nH]ncn1C1CCN(Cc2c[nH]c3ccccc23)CC1` had a concentration for half-maximal inhibition (IC50) greater than 99.5 µM.

`CCn1cc(-c2ccccc2N)nc(N2CC[C@@H](CO)C2)c1=O` returned a half-inhibitory concentration (IC50) greater than 99.5 µM.

Compound `O=C(O)c1cc(Cl)ccc1NS(=O)(=O)c1ccc(N[C@H]2CCOC2)nc1` returned a 50% inhibitory concentration (IC50) greater than 99.5 µM.

Regarding `NC[C@H]1CC[C@H](CNC(=O)[C@@H](NC(=O)OCc2ccccc2)c2ccc(OCc3ccccc3)cc2)CC1`, the half-inhibitory concentration (IC50) was greater than 99.5 µM.

`CCSc1nnc(SCCn2nc3ccccn3c2=O)s1`: the concentration for half-maximal inhibition (IC50) was greater than 99.5 µM.

For the compound `c1cc(-c2nnc(NCc3nnn[nH]3)s2)no1`, the IC50 was greater than 99.5 µM.

As for `CC(C)(C)OC(=O)NCc1cccc(NC(=O)[C@@H](NC(=O)OCc2ccccc2)c2ccc(O)cc2)c1`, the IC50 is greater than 99.5 µM.

In the case of `CN1CCN(C2CCN(C(=O)c3cc(C=O)n(C)c3)CC2)CC1`, the IC50 is greater than 99.5 µM.

For the compound `NCc1cccc(NC(=O)[C@@H](NC(=O)OCc2ccccc2)c2c(F)cccc2F)c1`, the 50% inhibitory concentration (IC50) was greater than 99.5 µM.
